Laboratory results: ChEMBL document CHEMBL1201862, “PubChem BioAssay data set” (2004)
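These data come from cells grown in 96-well plates and exposed to compound for 48 hours at five concentrations. At the GI50, growth is halved.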 Active and inactive are the calls of the source. No stated cut-off is given here; in the data, active = GI50 up to about 1.1 µM and inactive = higher.

Tests used:
Test in all cases: NCI tumour cell line growth inhibition, 48 h
DLD-1 = system: DLD-1
DMS-114 = system: DMS-114
KM-20L2 = system: KM-20L2
LXFL 529 = system: LXFL 529
M19-MEL = system: M19-MEL
RXF 631 = system: RXF 631
SNB-78 = system: SNB-78
XF498 = system: XF498
HOP-18 = system: HOP-18

With `COC(=O)C1=C(C(=O)OC)C23CC1C1C(C(=O)OC)=C(C(=O)OC)C12C1C=CC3C2C(=O)OC(=O)C21` (stereo unspecified) the GI50 (DLD-1) was 76.9 µM (inactive), the GI50 (DMS-114) was 26.6 µM (inactive) and the GI50 (KM-20L2) was > 100 µM (inactive). For the same compound, the GI50 (LXFL 529) was 39.6 µM (inactive), the GI50 (M19-MEL) was 50.9 µM (inactive) and the GI50 (RXF 631) was 71.6 µM (inactive). The GI50 (SNB-78) was 24.2 µM (inactive) and the GI50 (XF498) was 45.9 µM (inactive).

In the case of `O=C(/C=C/c1ccccc1)CC(=O)CCC(=O)Nc1ccc(Cl)cc1`, the GI50 (DLD-1) is reported as 29.2 µM (inactive), the GI50 (DMS-114) is reported as 57 µM (inactive) and the GI50 (HOP-18) is reported as > 100 µM (inactive). For the same compound, the GI50 (KM-20L2) was 9.73 µM (inactive), the GI50 (LXFL 529) was 6.75 µM (inactive) and the GI50 (M19-MEL) was 71 µM (inactive). For the same compound, the GI50 (SNB-78) was > 100 µM (inactive).

With `Cc1ccc2c(c1)c(=O)c1c(NCCN(C)C)ccc3nnn2c31` the GI50 (DLD-1) was 2.88 µM (inactive), the GI50 (DMS-114) was 5.26 µM (inactive) and the GI50 (HOP-18) was 9.93 µM (inactive). For the same compound, the GI50 (KM-20L2) was 3.03 µM (inactive), the GI50 (LXFL 529) was 3.48 µM (inactive) and the GI50 (M19-MEL) was 6.21 µM (inactive). For the same compound, the GI50 (SNB-78) was 6.22 µM (inactive).

`CC(O)CCCOC(c1ccccc1)(c1ccccc1)c1ccccc1` (stereo unspecified) was tested, and the GI50 (DLD-1) was 17.2 µM (inactive), the GI50 (DMS-114) was 13.2 µM (inactive) and the GI50 (KM-20L2) was 10.4 µM (inactive). The GI50 (LXFL 529) was 14.7 µM (inactive), the GI50 (M19-MEL) was 17 µM (inactive) and the GI50 (SNB-78) was 14.7 µM (inactive). The GI50 (XF498) was 14.7 µM (inactive).

For `COc1ccc(C[C@@H]2NC[C@@H](O)[C@@H]2OC(C)=O)cc1`, the GI50 (DLD-1) was 1.77 µM (inactive), the GI50 (DMS-114) was 1.45 µM (inactive) and the GI50 (HOP-18) was 1.73 µM (inactive). For the same compound, the GI50 (KM-20L2) was 3.95 µM (inactive), the GI50 (LXFL 529) was 1.32 µM (inactive) and the GI50 (M19-MEL) was 1.79 µM (inactive).

In the case of `CC(=O)Nc1ccc(C(=O)NN2C(=O)C(Cl)C2c2ccccc2)cc1` (stereo unspecified), the GI50 (DLD-1) is reported as > 100 µM (inactive), the GI50 (KM-20L2) is reported as > 100 µM (inactive) and the GI50 (LXFL 529) is reported as > 100 µM (inactive). The GI50 (M19-MEL) was > 100 µM (inactive) and the GI50 (SNB-78) was > 100 µM (inactive).

With `COc1ccc(CNc2nc3ccc(C(F)(F)F)cc3nc2-c2ccccc2)cc1OC` the GI50 (HOP-18) was > 100 µM (inactive), the GI50 (KM-20L2) was 47.6 µM (inactive) and the GI50 (LXFL 529) was 43.4 µM (inactive). For the same compound, the GI50 (M19-MEL) was > 100 µM (inactive), the GI50 (RXF 631) was 16.7 µM (inactive) and the GI50 (SNB-78) was > 100 µM (inactive). The GI50 (XF498) was 13.2 µM (inactive).

`CSC(C1c2ccccc2N(c2ccc(C)cc2)c2[nH]c(=O)n(C)c(=O)c21)S(=O)(=O)c1ccc(C)cc1` (stereo unspecified) was tested, and the GI50 (DLD-1) was > 100 µM (inactive), the GI50 (DMS-114) was > 100 µM (inactive) and the GI50 (KM-20L2) was > 100 µM (inactive). For the same compound, the GI50 (LXFL 529) was > 100 µM (inactive), the GI50 (M19-MEL) was > 100 µM (inactive) and the GI50 (SNB-78) was > 100 µM (inactive). The GI50 (XF498) was > 100 µM (inactive).

`ClCCCN1CCN(CCCl)CC1` was tested, and the GI50 (DLD-1) was 167 µM (inactive), the GI50 (DMS-114) was 28.9 µM (inactive) and the GI50 (HOP-18) was > 553 µM (inactive). For the same compound, the GI50 (KM-20L2) was 269 µM (inactive), the GI50 (M19-MEL) was 226 µM (inactive) and the GI50 (SNB-78) was 135 µM (inactive). The GI50 (XF498) was 46.3 µM (inactive).

In the case of `C[C@@]12[Se]c3ccccc3[C@]1(C)[Se]c1ccccc12`, the GI50 (DLD-1) is reported as > 100 µM (inactive), the GI50 (DMS-114) is reported as 2.12 µM (inactive) and the GI50 (HOP-18) is reported as > 100 µM (inactive). The GI50 (KM-20L2) was > 100 µM (inactive), the GI50 (LXFL 529) was > 100 µM (inactive) and the GI50 (M19-MEL) was 5.68 µM (inactive).

In the case of `Nc1ccn(CCO)c(=O)n1`, the GI50 (DLD-1) is reported as > 100 µM (inactive), the GI50 (DMS-114) is reported as > 100 µM (inactive) and the GI50 (HOP-18) is reported as > 100 µM (inactive). For the same compound, the GI50 (KM-20L2) was > 100 µM (inactive), the GI50 (LXFL 529) was > 100 µM (inactive) and the GI50 (M19-MEL) was > 100 µM (inactive). For the same compound, the GI50 (SNB-78) was > 100 µM (inactive).

With `C[N+]1(CCNP(=S)(NCC[N+]2(C)Cc3c(ccc4c3OCO4)C3C2c2cc4c(cc2C[C@@H]3O)OCO4)NCC[N+]2(C)Cc3c(ccc4c3OCO4)C3C2c2cc4c(cc2C[C@@H]3O)OCO4)Cc2c(ccc3c2OCO3)C2C1c1cc3c(cc1C[C@H]2O)OCO3` (stereo partly specified) the GI50 (DLD-1) was < 0.00191 µM (active), the GI50 (HOP-18) was < 0.00191 µM (active) and the GI50 (KM-20L2) was < 0.00191 µM (active). The GI50 (LXFL 529) was < 0.00191 µM (active), the GI50 (M19-MEL) was < 0.00191 µM (active) and the GI50 (SNB-78) was < 0.00191 µM (active). For the same compound, the GI50 (XF498) was < 0.00191 µM (active).

For `Cn1c2ccccc2c2cc(-c3ccccc3)c3c(c21)C(=O)C=CC3=O`, the GI50 (DLD-1) was 13.6 µM (inactive), the GI50 (DMS-114) was 9.38 µM (inactive) and the GI50 (LXFL 529) was 6.68 µM (inactive). The GI50 (M19-MEL) was 20.1 µM (inactive), the GI50 (RXF 631) was 30.3 µM (inactive) and the GI50 (SNB-78) was > 42.1 µM (inactive). For the same compound, the GI50 (XF498) was 17.8 µM (inactive).

In the case of `C[N+](C)(C)CC1CCCCC1=O` (stereo unspecified), the GI50 (DLD-1) is reported as 19.8 µM (inactive), the GI50 (DMS-114) is reported as 36.9 µM (inactive) and the GI50 (HOP-18) is reported as 16.3 µM (inactive). For the same compound, the GI50 (KM-20L2) was 2 µM (inactive) and the GI50 (M19-MEL) was 18.5 µM (inactive).

For `CC(N)Cc1cccc(C(F)(F)F)c1` (stereo unspecified), the GI50 (DLD-1) was > 100 µM (inactive), the GI50 (DMS-114) was > 100 µM (inactive) and the GI50 (HOP-18) was > 100 µM (inactive). The GI50 (KM-20L2) was > 100 µM (inactive), the GI50 (LXFL 529) was > 100 µM (inactive) and the GI50 (M19-MEL) was > 100 µM (inactive). The GI50 (RXF 631) was > 100 µM (inactive) and the GI50 (SNB-78) was > 100 µM (inactive).

For `c1ccc(OC2=NC3=S(S2)SC(Oc2ccccc2)=N3)cc1`, the GI50 (DLD-1) was 16.5 µM (inactive), the GI50 (DMS-114) was 19.9 µM (inactive) and the GI50 (KM-20L2) was 22.3 µM (inactive). The GI50 (M19-MEL) was 17.8 µM (inactive), the GI50 (RXF 631) was 25.1 µM (inactive) and the GI50 (SNB-78) was 20.5 µM (inactive). For the same compound, the GI50 (XF498) was 15.7 µM (inactive).

`CC1=CC[C@@H](C(C)(C)O)C[C@@H]1O` was tested, and the GI50 (DLD-1) was > 5000 µM (inactive), the GI50 (DMS-114) was > 5000 µM (inactive) and the GI50 (KM-20L2) was > 5000 µM (inactive). The GI50 (LXFL 529) was > 5000 µM (inactive), the GI50 (M19-MEL) was > 5000 µM (inactive) and the GI50 (RXF 631) was > 5000 µM (inactive). For the same compound, the GI50 (SNB-78) was > 5000 µM (inactive) and the GI50 (XF498) was > 5000 µM (inactive).

With `C=CCSC[C@H](NC(=O)COc1ccccc1)C(=O)NC(C(=O)OCc1ccc([N+](=O)[O-])cc1)=C(C)C` the GI50 (DLD-1) was > 100 µM (inactive), the GI50 (DMS-114) was 45.3 µM (inactive) and the GI50 (HOP-18) was > 100 µM (inactive). For the same compound, the GI50 (KM-20L2) was > 100 µM (inactive), the GI50 (LXFL 529) was 36.1 µM (inactive) and the GI50 (M19-MEL) was 32.1 µM (inactive). For the same compound, the GI50 (RXF 631) was 90.8 µM (inactive) and the GI50 (SNB-78) was 63.2 µM (inactive).

With `[O-]c1c2c(nn1-c1ccccc1)c1ccccc1c[n+]2Cc1ccccc1` the GI50 (DLD-1) was > 100 µM (inactive), the GI50 (DMS-114) was > 100 µM (inactive) and the GI50 (HOP-18) was > 100 µM (inactive). The GI50 (KM-20L2) was > 100 µM (inactive), the GI50 (LXFL 529) was > 100 µM (inactive) and the GI50 (M19-MEL) was > 100 µM (inactive). The GI50 (RXF 631) was > 100 µM (inactive), the GI50 (SNB-78) was > 100 µM (inactive) and the GI50 (XF498) was > 100 µM (inactive).

With `O=C1C(Cl)C(c2cccc([N+](=O)[O-])c2)N1n1cnc2ccccc2c1=O` (stereo unspecified) the GI50 (DLD-1) was > 100 µM (inactive), the GI50 (DMS-114) was 86.9 µM (inactive) and the GI50 (HOP-18) was 11 µM (inactive). The GI50 (KM-20L2) was 85.7 µM (inactive), the GI50 (LXFL 529) was 92.3 µM (inactive) and the GI50 (M19-MEL) was > 100 µM (inactive).

With `COC(=O)c1cc2ccccc2c2nc3ccccc3c(Cl)c12` the GI50 (DLD-1) was > 100 µM (inactive), the GI50 (DMS-114) was > 100 µM (inactive) and the GI50 (KM-20L2) was 11.4 µM (inactive). For the same compound, the GI50 (LXFL 529) was > 100 µM (inactive), the GI50 (M19-MEL) was > 100 µM (inactive) and the GI50 (RXF 631) was > 100 µM (inactive). The GI50 (XF498) was > 100 µM (inactive).
